Laboratory results published in ChEMBL document CHEMBL1141996, “cis-6-oxo-hexahydro-2-oxa-1,4-diazapentalene and cis-6-oxo-hexahydropyrrolo[3,2-c]pyrazole based scaffolds: design rationale, synthesis and cysteinyl proteinase inhibition” (Bioorg Med Chem Lett, 2005).

Columns and labels:
Cysteine proteinase B = Cysteine proteinase B (Leishmania mexicana, UniProt P36400); test: Binding affinity against Leishmania mexicana cysteine peptidase B (CPB)
[1] = Binding affinity against cathepsin B
Cathepsin K = target: T1, Cathepsin K (Homo sapiens, UniProt P43235); test: Binding affinity against human cathepsin K
T1 sequence (P43235 whole entry): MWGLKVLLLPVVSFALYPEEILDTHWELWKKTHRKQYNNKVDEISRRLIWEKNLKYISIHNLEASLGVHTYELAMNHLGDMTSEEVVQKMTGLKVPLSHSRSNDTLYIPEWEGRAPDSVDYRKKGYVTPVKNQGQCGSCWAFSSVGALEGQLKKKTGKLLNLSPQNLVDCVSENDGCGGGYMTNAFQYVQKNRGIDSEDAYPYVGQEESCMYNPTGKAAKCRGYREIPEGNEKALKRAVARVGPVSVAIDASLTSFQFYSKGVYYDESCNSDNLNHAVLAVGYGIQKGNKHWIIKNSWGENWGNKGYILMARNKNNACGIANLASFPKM

Cruzipain = Cruzipain (Trypanosoma cruzi, UniProt P25779); test: Binding affinity against cruzaine
Sequence of Cruzipain (P25779 whole entry): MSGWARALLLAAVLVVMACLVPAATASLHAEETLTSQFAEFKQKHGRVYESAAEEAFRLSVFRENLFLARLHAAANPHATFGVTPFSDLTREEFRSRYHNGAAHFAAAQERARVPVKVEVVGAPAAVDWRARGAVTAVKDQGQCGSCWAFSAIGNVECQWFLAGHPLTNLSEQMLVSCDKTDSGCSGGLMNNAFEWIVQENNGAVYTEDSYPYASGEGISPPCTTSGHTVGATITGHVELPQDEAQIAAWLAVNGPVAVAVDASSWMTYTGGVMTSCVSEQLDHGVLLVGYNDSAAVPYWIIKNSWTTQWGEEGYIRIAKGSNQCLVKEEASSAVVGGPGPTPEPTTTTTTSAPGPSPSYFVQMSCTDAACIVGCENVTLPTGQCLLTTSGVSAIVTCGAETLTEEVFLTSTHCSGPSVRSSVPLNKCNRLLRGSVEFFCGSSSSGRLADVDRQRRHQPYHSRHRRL

[2] = Binding affinity against cathepsin L
Cathepsin S = Cathepsin S (Homo sapiens, UniProt P25774); test: Binding affinity against cathepsin S
Sequence of Cathepsin S (P25774 whole entry): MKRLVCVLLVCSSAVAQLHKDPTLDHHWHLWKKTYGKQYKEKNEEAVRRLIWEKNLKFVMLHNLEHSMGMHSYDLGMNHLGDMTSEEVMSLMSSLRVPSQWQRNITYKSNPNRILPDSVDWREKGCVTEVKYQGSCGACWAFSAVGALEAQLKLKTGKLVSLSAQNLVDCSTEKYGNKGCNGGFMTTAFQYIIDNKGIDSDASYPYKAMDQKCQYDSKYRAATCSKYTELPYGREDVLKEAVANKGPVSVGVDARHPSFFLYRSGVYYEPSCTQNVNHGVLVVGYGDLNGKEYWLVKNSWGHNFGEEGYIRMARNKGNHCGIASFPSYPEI

Sequence of Cysteine proteinase B (P36400 whole entry): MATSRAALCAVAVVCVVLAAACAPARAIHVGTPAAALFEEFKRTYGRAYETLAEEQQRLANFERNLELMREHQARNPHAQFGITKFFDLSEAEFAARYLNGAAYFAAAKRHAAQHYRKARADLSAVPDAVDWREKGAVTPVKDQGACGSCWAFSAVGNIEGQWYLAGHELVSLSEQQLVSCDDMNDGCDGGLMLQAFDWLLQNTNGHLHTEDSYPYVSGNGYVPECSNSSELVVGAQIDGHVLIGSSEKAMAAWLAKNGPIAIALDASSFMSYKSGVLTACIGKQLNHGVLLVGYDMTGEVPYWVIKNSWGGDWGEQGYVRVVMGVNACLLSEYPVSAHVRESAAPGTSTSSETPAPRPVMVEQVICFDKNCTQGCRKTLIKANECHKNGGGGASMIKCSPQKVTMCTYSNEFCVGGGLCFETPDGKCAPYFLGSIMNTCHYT

For `CC(C)C[C@H](NC(=O)c1ccc(C(C)(C)C)cc1)C(=O)N1CC[C@@H]2[C@H]1C(=O)CN2C(=O)c1ccccc1`, the Ki (Cysteine proteinase B) was 0.691 µM, the Ki [1] was over 10 µM and the Ki (Cathepsin K) was 0.0101 µM. The Ki (Cruzipain) was 0.173 µM, the Ki [2] was over 3.5 µM and the Ki (Cathepsin S) was over 4.5 µM.
Work on `CC(C)C[C@H](NC(=O)c1ccc(N(C)C)cc1)C(=O)N1OC[C@@H]2[C@H]1C(=O)CN2C(=O)c1ccccc1` yielded a Ki (Cysteine proteinase B) of 1 µM, a Ki [1] of over 6 µM and a Ki (Cathepsin K) of 0.0401 µM. It also gave a Ki (Cruzipain) of 2.5 µM, a Ki [2] of over 4.3 µM and a Ki (Cathepsin S) of over 3 µM.
With `CC(C)C[C@H](NC(=O)c1ccc(N(C)C)cc1)C(=O)N1CC[C@@H]2[C@H]1C(=O)CN2C(=O)c1ccccc1` the Ki (Cysteine proteinase B) was 1.17 µM, the Ki [1] was over 10 µM and the Ki (Cathepsin K) was 0.0055 µM. It also gave a Ki (Cruzipain) of 0.6 µM, a Ki [2] of 1.8 µM and a Ki (Cathepsin S) of over 3 µM.
Molecule `CC(C)C[C@H](NC(=O)c1ccc(C(C)(C)C)cc1)C(=O)N1NC[C@@H]2[C@H]1C(=O)CN2C(=O)c1ccccc1` has a Ki (Cysteine proteinase B) of 0.0495 µM, a Ki [1] of 0.119 µM and a Ki (Cathepsin K) of 0.0035 µM. The Ki (Cruzipain) was 0.0932 µM, the Ki [2] was 0.37 µM and the Ki (Cathepsin S) was 0.434 µM.
